{"source": "patent US20240166662A1", "about": "“THIOPHENE BASED COMPOUNDS AND USE THEREOF AS BCKDK INHIBITORS” (Ramino-Bio Ltd., priority 2021, published 2024)", "key": {"BDK (MBP-BDK) [1]": {"target": "T1, BDK (MBP-BDK) (UniProt Q00972)", "T1 construct": "IC50 BDK; other: cell-free BDK activity assay; other: in-vitro; assay not specified", "assay": "Cell-free BDK activity assay (ADP-Glo kinase kit)", "format": "biochemical", "conditions": "cell-free BDK activity assay", "description": "(§1) Cell-free BDK activity assay was developed based on protocols and published work of David Chuang as described in Tso et al. 2014. Briefly, The main components of the enzymatic cell-free activity assay are the kinase-BDK (MBP-BDK), its 14 kDa synthetic substrate Lip-LBD-PhP, and ATP. The detection is being done with Promega ADP-Glo™ kinase kit. The assay is robust generating an assay window (AW)>5 and Z′−factor>0.5. The concentrations of all assay components were reduced relative to published concentrations and the assay was validated using known BDK inhibitors.\n(§2) Constructs: a synthetic 14 KDa peptide that serves as a substrate for BDK instead of the multimeric BCKDH. This peptide, named LBD-PhP, is composed of the lipoyl binding domain (LBD) of the BCKDH E2 subunit connected by a linker to the phosphorylation peptide (PhP) of the E1α subunit. LBD-PhP is lipoylated in vitro using the E. Coli enzyme—lipoylate ligase (Lp1A) to achieve enhancement of BDK substrate phosphorylation. Additionally, a chimeric BDK in which the kinase is fused in its N-terminus to MBP, generating-MBP-BDK to increase BDK solubility and stability.\n(§3) Reaction: The ADP detection is composed of the following steps:\n(§4) Kinase reaction is performed by adding BDK, lip-LBD-PhP and ATP and incubating for 60 min at room temperature. This is done in solid white 384-well plates and the total volume of the reaction is 10 μl.\n(§5) ADP-Glo reagent is added to terminate the kinase reaction and to deplete the remaining ATP and incubated for 40 min.\n(§6) Kinase detection reagent is added for ADP detection: The ADP is converted to ATP and using a series of enzymatic reactions the newly synthesized ATP generates a luminescent signal which is proportional to the amount of the initial ADP formed by the kinase reaction. Luminescence is measured using a plate reader (Tecan Spark 20M plate reader).\n(§7) In a typical experiment the AW and Z-factor are calculated from 12 repeats of positive control (100% activity) and 12 repeats of negative control (0% activity).\n(§8) Positive control (100% activity)=maximal kinase activity with ATP and substrate. Negative control (0% activity)=minimal kinase activity with ATP alone (no substrate). AW: Average100%/Average0%. Z-factor: 1−((3*STDEV100%+3*STDEV0%)/(Average100%−Average0%)).\n(§9) Each 384-well plate-based screening experiment includes serial dilutions of 14 different compounds and the following controls: 1. A known BDK tool compound BT2 (for allosteric inhibitors)/Radicicol (for ATP-pocket inhibitors) 2. Twelve repeats of positive and negative controls. Analyzed compounds and tool compounds are serially diluted, 8-point half log from 50 μM to 16 nM in triplicates. The positive and negative controls are used to calculate AW and Z-factor and to enable data normalization."}, "BCKDH": {"test_system": "BCKDH", "conditions": "WT and iMSUD patient derived lymphoblasts; cited from earlier work"}, "BDK [2]": {"target": "T2, BDK (Homo sapiens, UniProt O14874)", "T2 construct": "endogenous in cells; host or cells: human lymphoblasts", "assay": "BDK inhibitory activity in cell culture (human lymphoblasts)", "format": "cell-based"}, "[3]": {"assay": "Plasma protein binding (mouse)", "format": "in vitro ADME", "description": "(§10) Various pharmacokinetic parameters of exemplary compounds of the invention have been established in-vivo and are presented in Table 2 below."}, "[4]": {"assay": "Plasma protein binding (human)", "format": "in vitro ADME", "description": "as §10"}, "[5]": {"assay": "Pharmacokinetic parameters in-vivo (IV, IP, PO)", "conditions": "for AUC: read-out: Exposure (AUC); for bioavailability: read-out: Oral bioavailability (F); for Vd: read-out: Volume of distribution (Vd)", "description": "as §10"}, "BDK [6]": {"target": "T2, BDK", "assay": "Cell-based ELISA of BDK activity (E1α phosphorylation level) in WT and iMSUD patient derived lymphoblasts", "conditions": "WT and mutant lymphoblasts derived from iMSUD patients", "description": "Accordingly, the inventors performed cell studies in order to test the efficacy of the exemplary compounds of the invention on the BCKDH E1α subunit phosphorylation level, as it is BDK substrate in WT and iMSUD lymphoblasts and fibroblasts. Efficacy of the tested compounds RMO-1154 and RMO-800 in 2 MSUD lymphoblasts lines has been determined using cell-based ELISA to quantify BDK activity in treated cells as monitored by the phosphorylation level of BDK substrate, E1α. Healthy donor cells and BT2 (commercially available BDK inhibitor) have been used as positive controls."}, "[7]": {"test_system": "BCKA (KIV, KIC, KMV) plasma concentration", "assay": "In-vivo BCKA plasma concentration in WT mice by LC-MS", "conditions": "for reduction of BCKA (such as KIC and/or KMV) plasma concentrations: 3 single doses a day for 7 days, day 8, WT mice", "description": "An alternative assay for assessment of BCKDH activity comprises measuring of BCKAs blood (e.g. plasma) concentration within the subject. BCKAs (such as a-keto isovalerate (abbreviated as KIV), sodium a-keto isocaproate (abbreviated as KIC), sodium a-keto β-methylvalerate (abbreviated as KMV)) are downstream metabolites of BCAAs, and the substrates of BCKDH complex, and are considered to be reliable and sensitive biomarkers for BDK inhibition and BCKDH complex activity enhancement.\nBCKA blood concentration of a subject can be determined by various analytical methods, such as by LC-MS.\nThe inventors performed an in-vivo study by administering an exemplary compound of the invention (RMO-1154) to 8-10 week-old […] WT mice (n=5). RMO-1154 has been administered (per os, 3 single doses a day every 8 hrs, for 7 days) at various single doses (10 mg/kg, 30 mg/kg, and 100 mg/kg). At day 8, KIV, KIC and KMV plasma concentration has been determined by LC-MS."}, "BDK (MBP-BDK) [8]": {"test_system": "BDK (MBP-BDK)", "assay": "Cell-free BDK activity assay (ADP-Glo kinase kit)", "format": "biochemical", "conditions": "in-vitro", "description": "as §1, §2, §3, §4, §5, §6, §7, §8, §9"}, "[9]": {"conditions": "human lymphoblasts, read-out: IC50 lymphoblasts"}}, "note": "Like-named read-outs stand apart in the source and are kept apart here.", "data": [{"smiles": "O=C(O)c1cc2cc(F)sc2s1", "note": "[RMO-1153B, 5-fluorothieno[2,3-b]thiophene-2-carboxylic acid]", "values": [{"measurement": "IC50", "setting": "BDK (MBP-BDK) [1]", "result": 610, "unit": "nM"}]}, {"smiles": "O=C(O)c1sc2cc(Cl)ccc2c1Cl", "note": "[BT2]", "values": [{"measurement": "BCKDH activity (in words)", "setting": "BCKDH", "result": "increase of the BCKDH activity"}]}, {"smiles": "O=C(O)c1sc2cc(F)ccc2c1Cl", "note": "[BT2F]", "values": [{"measurement": "BCKDH activity (in words)", "setting": "BCKDH", "result": "increase of the BCKDH activity"}]}, {"smiles": "O=C(O)c1sc2cscc2c1F", "note": "[RMO-1154, 3-fluorothieno[3,4-b]thiophene-2-carboxylic acid]", "values": [{"measurement": "IC50", "setting": "BDK (MBP-BDK) [1]", "result": 560, "unit": "nM"}, {"measurement": "IC50", "setting": "BDK [2]; [9]", "result": 580, "unit": "nM"}, {"measurement": "fraction unbound", "setting": "[3]", "result": 0.108}, {"measurement": "fraction unbound", "setting": "[4]", "result": 0.015}, {"measurement": "AUC", "setting": "[5]; ip, 3 mg/kg", "result": 18000, "unit": "ng·h/mL"}, {"measurement": "bioavailability", "setting": "[5]; ip, 3 mg/kg", "result": 98, "unit": "%"}, {"measurement": "AUC", "setting": "[5]; iv, 1 mg/kg", "result": 6130, "unit": "ng·h/mL"}, {"measurement": "Vd", "setting": "[5]; iv, 1 mg/kg", "result": 0.15, "unit": "L/kg"}, {"measurement": "AUC", "setting": "[5]; po, 3 mg/kg", "result": 19400, "unit": "ng·h/mL"}, {"measurement": "bioavailability", "setting": "[5]; po, 3 mg/kg", "result": 104, "unit": "%"}, {"measurement": "BDK inhibitory activity (FIGS. 1A-1B, in words)", "setting": "BDK [6]", "result": "BDK inhibitory activity"}, {"measurement": "reduction of BCKA (such as KIC and/or KMV) plasma concentrations", "setting": "[7]; 10 mg/kg per os", "result": "about 2 fold"}, {"measurement": "reduction of BCKA (such as KIC and/or KMV) plasma concentrations", "setting": "[7]; 30 mg/kg per os", "result": "8-10 fold"}, {"measurement": "reduction of BCKA (such as KIC and/or KMV) plasma concentrations", "setting": "[7]; 100 mg/kg per os", "result": "10-12 fold"}, {"measurement": "in-vivo reduction of BCKA (KIV, KIC, KMV) concentration in plasma (FIG. 2, in words)", "setting": "[7]; WT mice, day 8", "result": "dose dependent in-vivo reduction"}]}, {"smiles": "O=C(O)c1cc2c(F)sc(F)c2s1", "note": "[RMO-1149, 4,6-difluorothieno[3,4-b]thiophene-2-carboxylic acid]", "values": [{"measurement": "IC50", "setting": "BDK (MBP-BDK) [1]", "result": 800, "unit": "nM"}, {"measurement": "IC50", "setting": "BDK [2]; [9]", "result": 380, "unit": "nM"}]}, {"smiles": "O=C(O)c1cc2c(F)c(F)sc2s1", "note": "[RMO-800, 4,5-difluorothieno[2,3-b]thiophene-2-carboxylic acid]", "values": [{"measurement": "IC50", "setting": "BDK (MBP-BDK) [1]", "result": 100, "unit": "nM"}, {"measurement": "IC50", "setting": "BDK [2]; [9]", "result": 100, "unit": "nM"}, {"measurement": "fraction unbound", "setting": "[3]", "result": 0.012}, {"measurement": "fraction unbound", "setting": "[4]", "result": 0.008}, {"measurement": "AUC", "setting": "[5]; ip, 3 mg/kg", "result": 14700, "unit": "ng·h/mL"}, {"measurement": "bioavailability", "setting": "[5]; ip, 3 mg/kg", "result": 136, "unit": "%"}, {"measurement": "AUC", "setting": "[5]; iv, 1 mg/kg", "result": 3580, "unit": "ng·h/mL"}, {"measurement": "Vd", "setting": "[5]; iv, 1 mg/kg", "result": 0.16, "unit": "L/kg"}, {"measurement": "AUC", "setting": "[5]; po, 3 mg/kg", "result": 12700, "unit": "ng·h/mL"}, {"measurement": "bioavailability", "setting": "[5]; po, 3 mg/kg", "result": 118, "unit": "%"}, {"measurement": "BDK inhibitory activity (FIGS. 1A-1B, in words)", "setting": "BDK [6]", "result": "BDK inhibitory activity"}]}, {"smiles": "CC(=O)Nc1nonc1NC(=O)c1sc2cc(Cl)ccc2c1Cl", "note": "[BT3]", "values": [{"measurement": "BCKDH activity (in words)", "setting": "BCKDH", "result": "increase of the BCKDH activity"}]}, {"smiles": "O=C(O)c1sc2sccc2c1F", "note": "[RMO-1153, 4-fluorothieno[2,3-b]thiophene-5-carboxylic acid]", "values": [{"measurement": "IC50", "setting": "BDK (MBP-BDK) [1]", "result": 490, "unit": "nM"}, {"measurement": "IC50", "setting": "BDK [2]; [9]", "result": 290, "unit": "nM"}]}, {"smiles": "O=C(O)c1cc2cscc2s1", "values": [{"measurement": "BDK inhibitory activity in-vitro (in words)", "setting": "BDK (MBP-BDK) [8]", "result": "significant BDK inhibitory activity"}]}, {"smiles": "O=C(O)c1sc2sc(F)cc2c1F", "note": "[RMO-801, 2,4-difluorothieno[2,3-b]thiophene-5-carboxylic acid]", "values": [{"measurement": "IC50", "setting": "BDK (MBP-BDK) [1]", "result": 470, "unit": "nM"}, {"measurement": "IC50", "setting": "BDK [2]; [9]", "result": 170, "unit": "nM"}]}, {"smiles": "O=C(O)c1[se]c2cc(Cl)ccc2c1Cl", "note": "[RMO-1152, 3,6-dichlorobenzo[b]selenophene-2-carboxylic acid]", "values": [{"measurement": "IC50", "setting": "BDK [2]; lymphoblasts cells, unit inferred", "result": "2860 to 13600", "unit": "nM"}]}]}
